The source of these data is patent US20110136899A1, “COMBINATION OF DRONEDARONE WITH AT LEAST ONE DIURETIC, AND THERAPEUTIC USE THEREOF” (SANOFI-AVENTIS, priority 2008, published 2011).

Where a name gives a salt, the structure may show the parent alone.

A short description of assay [1]: prospective, multinational, multicentre, double-blind clinical study versus placebo: prevention of cardiovascular hospitalizations or of mortality. The assay is classed as in vivo, patients. Details: reduction in mortality from any cause: concentration or dose not given beside the values. The method, then: The patients had to have a history of atrial fibrillation or flutter and/or could be in normal sinus rhythm or in atrial fibrillation or flutter at inclusion.
The patient recruitment was carried out by taking into account the following inclusion criteria:
Inclusion Criteria: • 1) One of the following risk factors had to be present: • age equal to or above 70, or even above 75, possibly combined with at least one of the risk factors below: • hypertension (taking antihypertensives of at least two different classes), • diabetes, • history of cerebral stroke (transient ischemic event or completed cerebral stroke) or of systemic embolism, • left atrial diameter greater than or equal to 50 mm measured by echocardiography, • left ventricular ejection fraction less than 40%, measured by two-dimensional echography; • 2) availability of an electrocardiogram carried out during the past 6 months in order to document the presence or the history of atrial fibrillation or flutter; • 3) availability of an electrocardiogram carried out during the past 6 months in order to document the presence or absence of normal sinus rhythm.
Treatment was initiated using tablets containing either the placebo or an amount of dronedarone hydrochloride corresponding to 400 mg of dronedarone at a rate of one tablet in the morning during or shortly after breakfast and one tablet in the evening during or shortly after dinner.
The anticipated duration of the treatment was variable according to the time at which each patient was included in the study, and could range from a minimum of 12 months for the last patient included up to a maximum corresponding to the entire duration of the study (12 months+duration of inclusion), i.e. approximately 30 months for the first patients included.
The results obtained in this trial were analysed by the Kaplan Meier method for the figures, and the relative risk (RR) was estimated using Cox's proportional-effect regression model.
The relative risk (RR) is the ratio of the rates of occurrence of a hospitalization or of a death among the patients on dronedarone, relative to the patients on placebo.
The percentage reduction x of a given event (hospitalization, death, cardiovascular death, etc.) is calculated in the following way: […]

A short description of assay [2]: regulation of the blood potassium level (regular blood samples taken throughout the clinical study). The assay is classed as in vivo, patients. Conditions: after the 24th month, taking into account the starting value; compared to the placebo; p<0.0001. The source says: The potassium concentration-modulating effect is clearly documented in the study by virtue of the results of analyses of regular blood samples taken throughout the duration of the study in the context of the monitoring of vital parameters.
The variations in potassium (in mmol/l) between the first and the last administration of the medicament of the study are included in FIG. 8, in which B signifies basal level, D signifies day and M signifies month.

Setting [3] is: versus placebo, x=1−relative risk.

Turning to `CCCCc1oc2ccc(NS(C)(=O)=O)cc2c1C(=O)c1ccc(OCCCN(CCCC)CCCC)cc1` [dronedarone hydrochloride], the “events (cardiovascular hospitalizations and mortality, principal judgment criterion)” value in assay [1] (2301 patients in treated group, 400 mg dronedarone twice daily, placebo group 917 events) is 734. The compound also gave a sudden deaths in assay [1] (2301 patients in treated group, placebo group 35 sudden deaths) of 14. In assay [1] (2301 patients in treated group, placebo group 94 cardiovascular deaths), the cardiovascular deaths is listed as 65. For the same compound, in assay [1] (2301 patients in treated group, placebo group 139 deaths), the “deaths (mortality from any cause)” value is recorded as 116. Also, the “events (cardiovascular hospitalizations)” value in assay [1] (2301 patients in treated group, placebo group 859 events) was 675. In assay [1] (2301 patients in treated group, placebo group 873 events), the “events (cardiovascular hospitalizations and sudden death)” value is on record as 684. In addition, the “events (cardiovascular hospitalizations and cardiovascular mortality)” value in assay [1] (2301 patients in treated group, placebo group 892 events) worked out at 701. In addition, the “relative risk (sudden death)” value in assay [1] (versus placebo, Cox model, p=0.0031) is 0.405. For the same compound, the “relative risk (cardiovascular mortality)” value in assay [1] (versus placebo, Cox model, p=0.0252) worked out at 0.698. Moreover, in assay [1] (versus placebo, Cox model, p=0.1758), the “relative risk (mortality from any cause)” value was found to be 0.844. In addition, the “relative risk (cardiovascular hospitalizations and deaths)” value in assay [1] (versus placebo, Cox model, p=2×10^−8) came out at 0.758. The “relative risk (cardiovascular hospitalizations)” value in assay [1] (versus placebo, Cox model, p=9×10^−9) came out at 0.745. Moreover, the “relative risk (cardiovascular hospitalizations and cardiovascular deaths)” value in assay [1] (versus placebo, Cox model, p=45×10^−10) was found to be 0.745. Moreover, in assay [1] (versus placebo, Cox model, p=48×10^−10), the “relative risk (cardiovascular hospitalizations and sudden deaths)” value amounted to 0.743. For the same compound, in assay [1] (setting [3]), the “reduction in cardiovascular hospitalizations” value is recorded as 25.5%; the “reduction in cardiovascular hospitalizations and cardiovascular deaths” value worked out at 25.5%; the “reduction in cardiovascular hospitalizations and deaths” value is on record as 24.2%; the “reduction in cardiovascular hospitalizations and sudden deaths” value is given as 25.5%. In addition, in assay [1] (setting [3]), the “reduction in cardiovascular mortality” value turned out to be 30.2%, the “reduction in mortality from any cause” value came to 15.6% and the “reduction in sudden death” value was 59.5%.
As to `CCCCc1oc2ccc(NS(C)(=O)=O)cc2c1C(=O)c1ccc(OCCCN(CCCC)CCCC)cc1` [dronedarone, 2-n-Butyl-3-[4-(3-di-n-butylaminopropoxy)benzoyl]-5-methylsulphonamidobenzofuran], the “change in blood potassium level (analysis of covariance)” value in assay [2] is “significant different in favour of dronedarone”. Besides, the “reduction in the risk of sudden death” value in assay [1] (hypertensive patients) is recorded as “approximately 62%”; in assay [1] (patients not taking diuretics, compared with the placebo), “approximately 34%”; in assay [1] (patients on diuretics, compared with the placebo), “approximately 70.4%”; in assay [1] (patients who were not hypertensive), “approximately 45.5%”.
